The record followed here is PMC7181277, “Synthesis and Biological Evaluation of New Antitubulin Agents Containing 2-(3′,4′,5′-trimethoxyanilino)-3,6-disubstituted-4,5,6,7-tetrahydrothieno[2,3-c]pyridine Scaffold” (Molecules, 2020).

Data set [1] relates to Bovine brain tubulin. Put plainly: Inhibition of tubulin polymerization (turbidimetric assembly). Type of data set: biochemical. As to conditions: tubulin at 10 μM, 20 min incubation; read-out: Tubulin assembly IC50 ± SD. As for the experimental part: (§1) Bovine brain tubulin was purified as described previously. To evaluate the effect of the compounds on tubulin assembly in vitro [59], varying concentrations were preincubated with 10 μM tubulin in 0.8 M glutamate buffer at 30 °C and then cooled to 0 °C. After addition of GTP, the mixtures were transferred to 0 °C cuvettes in a recording spectrophotometer and warmed to 30 °C, and the assembly of tubulin was observed turbidimetrically. […] The ability of the test compounds to inhibit colchicine binding to tubulin was measured as described earlier, except that the reaction mixtures contained 1 μM tubulin, 5 μM of [^3H]colchicine, and test compounds 3a or 3b.

In data set [2] the test system is murine leukemia (L1210) cells. Nature of the data set: In vitro antiproliferative assay, L1210 cells. Type of data set: cell-based. As to conditions: Mus musculus. An excerpt: In Table 1 we report the in vitro antiproliferative activity of 2-(3′,4′,5′-trimethoxyanilino)-4,5,6,7-tetrahydrothieno[2,3-c]pyridine derivatives 3a–3j and the related 4,5,6,7-tetrahydrobenzo[b]thiophenes 3k–3p against a panel of three cell lines, which were derived from different cancer types, including murine leukemia (L1210), human T-lymphoblastoid leukemia (CEM), and human cervix carcinoma (HeLa) cells.
(§2) Murine leukemia L1210, human T-lymphocyte leukemia CEM, human cervix carcinoma (HeLa), and human chronic myelogenous leukemia K562 cells (3–5 × 10^4 cells) and a serial (5-fold) dilution of the test compounds were added to a 96-well microtiter plate. The cells were incubated for 72 h at 37 °C in a humidified 5% CO2 atmosphere. At the end of the incubation period, the cells were counted in a Coulter Counter (Coulter Electronics Ltd., Harpenden Herts, United Kingdom). The IC50 (50% inhibitory concentration) was defined as the concentration of compound that inhibited cell proliferation by 50%. The IC50 values represent the average (± standard deviation) of three independent experiments. Human peripheral blood mononuclear cells (PBMC) were obtained from healthy donors by centrifugation with Ficoll-Paque Plus (GE Healthcare Bio-Sciences AB, Uppsala).

Data set [3] concerns tubulin (colchicine site). Nature of the data set: Inhibition of [3H]colchicine binding to tubulin. The arrangement: species or system Bovine. The note with it: tubulin 1 μM, colchicine 5 μM, compound 5 μM. As for the experimental part:
as §1

The subject of data set [4] is human T-lymphoblastoid leukemia (CEM) cells. Nature of the data set: In vitro antiproliferative assay, CEM cells. The format is cell-based. The note with it: CCRF-CEM; human T-lymphocyte CEM, 72 h, cell count; mean ± SE. As for the experimental part: as §2, with “The IC50 (50% inhibitory concentration) was defined as the concentration of compound that inhibited cell proliferation by 50%.” left out

Data set [5] concerns human cervix carcinoma (HeLa) cells. Nature of the data set: In vitro antiproliferative assay, HeLa cells. Type of data set: cell-based. The note with it: human cervix carcinoma HeLa, 72 h, cell count; mean ± SE. As to the method:
as §2, with “The IC50 (50% inhibitory concentration) was defined as the concentration of compound that inhibited cell proliferation by 50%.” left out

[6] abbreviates: murine leukemia L1210, 72 h, cell count, mean ± SE.

Each structure is given as a SMILES string.

Broadly, the IC50 is the concentration that inhibits the measured activity by half. For `COc1ccc(/C=C\c2cc(OC)c(OC)c(OC)c2)cc1O` [CA-4, combretastatin A-4, reference compound], the IC50 in data set [1] is […]; in data set [2] (L1210, 72 h) it was 0.0028 ± 0.0011 µM. Besides, the “Colchicine binding % ± SD (inhibition of [3H]colchicine binding)” value in data set [3] is on record as 98 ± 0.9%.

Take `CCOC(=O)N1CCc2c(sc(NC(=O)c3cccs3)c2C#N)C1` [Compound 2b, reference compound]: the IC50 in data set [2] (setting [6]) came to 6 ± 0.3 µM; in data set [4] it was 3.7 ± 1.2 µM; in data set [5], 41 ± 27 µM.

As a reminder, the melting point is the temperature of the solid-liquid transition. For `COC(=O)c1c(Nc2cc(OC)c(OC)c(OC)c2)sc2c1CCN(C(=O)OC)C2` [Compound 3c, Dimethyl 2-((3,4,5-trimethoxyphenyl)amino)-4,5-dihydrothieno[2,3-c]pyridine-3,6(7H)-dicarboxylate], the melting point is 140 to 141 °C. In data set [2] (setting [6]), this compound gave an IC50 of 17 ± 5 µM. Besides, in data set [4], the IC50 worked out at 16 ± 4 µM. This compound also registered an IC50 in data set [5] of 23 ± 10 µM.

The compound `CCOC(=O)N1CCc2c(sc(Nc3cc(OC)c(OC)c(OC)c3)c2C(=O)OC)C1` [Compound 3d, 6-Ethyl 3-methyl 2-((3,4,5-trimethoxyphenyl)amino)-4,5-dihydrothieno[2,3-c]pyridine-3,6(7H)-dicarboxylate] returned a melting point of 76 to 78 °C. The compound further returned an IC50 in data set [2] (setting [6]) of 15 ± 2 µM. In data set [4], this compound gave an IC50 of 12 ± 4 µM. In data set [5], this compound had an IC50 of 16 ± 3 µM.

Take `COC(=O)c1c(Nc2cc(OC)c(OC)c(OC)c2)sc2c1CCN(C(C)=O)C2` [Compound 3e, Methyl 6-acetyl-2-((3,4,5-trimethoxyphenyl)amino)-4,5,6,7-tetrahydrothieno[2,3-c]pyridine-3-carboxylate]: the melting point lay in the range of 90 to 91 °C. Besides, in data set [2] (setting [6]), the IC50 amounted to 26 ± 2 µM. Moreover, in data set [4], the IC50 came to 43 ± 12 µM. The compound further had an IC50 in data set [5] of 48 ± 17 µM.

As to `CCOC(=O)c1c(Nc2cc(OC)c(OC)c(OC)c2)sc2c1CCN(C(=O)OC)C2` [Compound 3f, 3-Ethyl 6-methyl 2-((3,4,5-trimethoxyphenyl)amino)-4,5-dihydrothieno[2,3-c]pyridine-3,6(7H)-dicarboxylate], the melting point lay within 128 to 130 °C. Also, it took 22 ± 4 µM to reach half-maximal inhibition in data set [2] (setting [6]) (IC50). Also, the IC50 in data set [4] came to 22 ± 8 µM. The same compound gave an IC50 in data set [5] of 67 ± 20 µM.

`CCOC(=O)c1c(Nc2cc(OC)c(OC)c(OC)c2)sc2c1CCN(C(=O)OCC)C2` [Compound 3g, Diethyl 2-((3,4,5-trimethoxyphenyl)amino)-4,5-dihydrothieno[2,3-c]pyridine-3,6(7H)-dicarboxylate] displayed a melting point of 67 to 69 °C. This compound yielded an IC50 in data set [2] (setting [6]) of 19 µM. In data set [4], this compound showed an IC50 of 19 ± 1 µM. The compound also had an IC50 in data set [5] of 19 ± 4 µM.

Compound `CCOC(=O)c1c(Nc2cc(OC)c(OC)c(OC)c2)sc2c1CCN(C(C)=O)C2` [Compound 3h, Ethyl 6-acetyl-2-((3,4,5-trimethoxyphenyl)amino)-4,5,6,7-tetrahydrothieno[2,3-c]pyridine-3-carboxylate] came in with a melting point of 93 to 95 °C. Moreover, the IC50 in data set [2] (setting [6]) stood at 25 ± 3 µM. The compound further yielded an IC50 in data set [4] of 34 ± 9 µM. Also, the IC50 in data set [5] worked out at 24 ± 3 µM.

The compound `COC(=O)N1CCc2c(sc(Nc3cc(OC)c(OC)c(OC)c3)c2C(=O)OC(C)(C)C)C1` [Compound 3i, 3-tert-butyl 6-methyl 2-((3,4,5-trimethoxyphenyl)amino)-4,5-dihydrothieno[2,3-c]pyridine-3,6(7H)-dicarboxylate] displayed a melting point of 50 to 52 °C. The compound also showed an IC50 in data set [2] (setting [6]) of 18 ± 3 µM. Besides, in data set [4], it took 20 ± 2 µM to reach half-maximal inhibition (IC50). In data set [5], this compound showed an IC50 of 14 ± 1 µM.

Regarding `CCOC(=O)N1CCc2c(sc(Nc3cc(OC)c(OC)c(OC)c3)c2C(=O)OC(C)(C)C)C1` [Compound 3j, 3-tert-butyl 6-ethyl 2-((3,4,5-trimethoxyphenyl)amino)-4,5-dihydrothieno[2,3-c]pyridine-3,6(7H)-dicarboxylate], the melting point was in the range of 60 to 62 °C. The IC50 in data set [2] (setting [6]) worked out at 19 ± 3 µM. In data set [4], this compound registered an IC50 of 19 ± 2 µM. The IC50 in data set [5] turned out to be 20 ± 4 µM.

The compound `COc1cc(Nc2sc3c(c2C#N)CCC(C)C3)cc(OC)c1OC` (centres unmarked) [Compound 3k, 6. -Methyl-2-((3,4,5-trimethoxyphenyl)amino)-4,5,6,7-tetrahydrobenzo[b]thiophene-3-carbonitrile] came in with a melting point of 112 to 114 °C. In data set [2] (setting [6]), this compound had an IC50 above 250 µM. The IC50 in data set [4] is above 250 µM. The same compound showed an IC50 in data set [5] of 202 ± 25 µM.

`COc1cc(Nc2sc3c(c2C#N)CCC(c2ccccc2)C3)cc(OC)c1OC` (centres unmarked) [Compound 3l, 6. -Phenyl-2-((3,4,5-trimethoxyphenyl)amino)-4,5,6,7-tetrahydrobenzo[b]thiophene-3-carbonitrile]: the melting point fell in the range of 169 to 170 °C. In addition, 92 ± 29 µM corresponded to half-maximal inhibition in data set [2] (setting [6]) (IC50). Further, the IC50 in data set [4] came to 58 ± 53 µM. The IC50 in data set [5] turned out to be 124 ± 8 µM.

`COC(=O)c1c(Nc2cc(OC)c(OC)c(OC)c2)sc2c1CCC(C)C2` (centres unmarked) [Compound 3m, Methyl 6-methyl-2-((3,4,5-trimethoxyphenyl)amino)-4,5,6,7-tetrahydrobenzo[b]thiophene-3-carboxylate] showed a melting point of 127 to 129 °C. Also, the IC50 in data set [2] (setting [6]) was found to be 82 ± 13 µM. In addition, inhibition in data set [4] was half-maximal at 45 ± 17 µM (IC50). Besides, half-maximal inhibition in data set [5] (IC50) required 11 ± 6 µM.

Turning to `COC(=O)c1c(Nc2cc(OC)c(OC)c(OC)c2)sc2c1CCC(c1ccccc1)C2` (centres unmarked) [Compound 3n, Methyl 6-phenyl-2-((3,4,5-trimethoxyphenyl)amino)-4,5,6,7-tetrahydrobenzo[b]thiophene-3-carboxylate], the melting point fell in the range of 147 to 148 °C. Further, in data set [2] (setting [6]), the IC50 came out at 101 ± 9 µM. In data set [4], this compound displayed an IC50 of 102 ± 50 µM. This compound gave an IC50 in data set [5] of 48 ± 6 µM.

In turn, `CCOC(=O)c1c(Nc2cc(OC)c(OC)c(OC)c2)sc2c1CCC(C)C2` (centres unmarked) [Compound 3o, Ethyl 6-methyl-2-((3,4,5-trimethoxyphenyl)amino)-4,5,6,7-tetrahydrobenzo[b]thiophene-3-carboxylate] had a melting point of 90 to 92 °C. In addition, the IC50 in data set [2] (setting [6]) is 86 ± 41 µM. The compound further returned an IC50 in data set [4] of 78 ± 33 µM. Moreover, in data set [5], inhibition was half-maximal at 66 ± 6 µM (IC50).

With `CCOC(=O)c1c(Nc2cc(OC)c(OC)c(OC)c2)sc2c1CCC(c1ccccc1)C2` (centres unmarked) [Compound 3p, Ethyl 6-phenyl-2-((3,4,5-trimethoxyphenyl)amino)-4,5,6,7-tetrahydrobenzo[b]thiophene-3-carboxylate], the melting point was 98 to 100 °C. The midpoint of inhibition in data set [2] (setting [6]), the IC50, lay at 112 ± 1 µM. It took 88 ± 12 µM to reach half-maximal inhibition in data set [4] (IC50). Further, inhibition in data set [5] was half-maximal at 169 ± 18 µM (IC50).
